The text below walks through data of patent publication US12285446B2, “Compositions and methods for improving mitochondrial function” (priority 2018, dated 2025).

Molecules are shown by their SMILES.

One experiment concerns UbV-gfp. Description: UbV-gfp reporter. The note with it: in vivo. Also noted: species or system Caenorhabditis elegans. The protocol:
To address how Gluconacetobacter spp feeding improves mitochondrial function, a variety of transgenic worm strains were tested, including worms that carry a construct encoding a fusion protein comprising a GFP reporter protein and a gene product that is involved in stress response, mitochondrial activity, peroxisomal function, innate immune response, and different signaling pathways (Table 1; FIGS. 2C-2K; FIGS. 6C-6L; FIGS. 7A-7D).

For experiment [1], the system named is phsp-6::gfp induced by human Aβ1-42. Description: phsp-6::gfp UPRmt reporter in worms with panneuronal human Aβ1-42. The format is in vivo, Caenorhabditis elegans. The note with it: compound treatment.
Description: Thus, it is possible to screen for interventions that will reduce the UPRmt induction by modulating the Aβ aggregation or toxicity of Aβ on mitochondria.
For the screen, thirty microbial strains including the negative control bacteria E. coli OP50 were grown in appropriate culture media conditions and spotted onto standard nematode growth medium plates. ˜30 synchronized L1-larval-stage transgenic worm expressing Aβ 1-42 or tau in the pan-neurons were dropped onto the seeded plates and scored visually after 4 days under a fluorescent microscope for changes in phsp-6::gfp expression (FIG. 13).

In the case of `CC(C)C[C@H](NC(=O)[C@H](Cc1ccccc1)NC(=O)c1cnccn1)B(O)O` [Bortezomib], the UbV-gfp expression result in the experiment with UbV-gfp is recorded as “stabilizes UbV-gfp”.
As for `Cc1ccc2c(c1)sc(-c1ccc(N(C)C)cc1)[n+]2C.[Cl-]` [Thioflavin T], the “induction of UPRmt (phsp-6::gfp) in Aβ worms treated with compound” value in experiment [1] is “induction of UPRmt was reduced”.
